Data on one compound can be found in EP4583874B1, “MULTITARGET NUCLEAR RECEPTOR LIGANDS BASED ON 2-(4-(QUINOLIN-2-YLOXY)PHENOXY)PROPANOIC ACID AND 2-(4-(QUINOXALIN-2-YLOXY)PHENOXY)PROPANOIC ACID FOR THE TREATMENT OF METABOLIC AND LIVER DISEASES” (CHARLES UNIVERSITY, FACULTY OF PHARMACY IN HRADEC KRALOVE, priority 2022, dated 2024).

For one assay, the target named is T1, human PPARα (Homo sapiens, UniProt Q07869).
T1 construct: DNA constructs encoding human LBD domains of human PPARα, PPARγ, of LXRα (pGAL4-PPARα, pGAL4-PPARγ, pGAL4-LXRα); expressed in transfected cells; host or cells: HepG2
T1 sequence (Q07869 239-466 limits assumed): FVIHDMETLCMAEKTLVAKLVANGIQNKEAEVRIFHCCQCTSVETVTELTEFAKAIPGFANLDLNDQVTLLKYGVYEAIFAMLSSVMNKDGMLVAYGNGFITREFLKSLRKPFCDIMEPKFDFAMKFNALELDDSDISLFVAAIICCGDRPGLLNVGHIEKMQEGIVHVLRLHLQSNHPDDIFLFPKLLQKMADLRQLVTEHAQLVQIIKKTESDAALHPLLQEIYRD
Briefly: PPARα responsive luciferase reporter gene assay (pGAL4-PPARα / pGL5-UAS 9x) in HepG2 cells. The assay is classed as cell-based. Conditions: relative activation to fenofibrate 10 µM (100%), HepG2, 24 h, negative value indicates inverse agonism. The source says:
Bezafibrate, GW7647 and WY14643 are known PPARα ligands. […] GW3965 is known high-affinity LXRα ligand. […]
In HepG2 cells, luciferase gene reporter assays have been performed with the transiently transfected reporter gene luciferase construct with the UAS yeast binding site interacting with GAL4 protein (pGL5-UAS 9x, Promega). DNA constructs encoding human LBD domains of human PPARα, PPARγ, of LXRα (pGAL4-PPARα, pGAL4-PPARγ, pGAL4-LXRα) have been cotransfected with the reporter construct. For FXR, FXRE-luc construct with FXR response elements upstream of Firefly luciferase has been used together with an expression construct for human FXR for HepG2 cells transfection. HepG2 cells were then treated with compounds of the invention for 24 h.
For orientation: Reporter assays use an easily measured gene product as a stand-in for the process of interest.

The target of the next assay is T2, human PPARγ (Homo sapiens, UniProt P37231).
T2 construct: DNA constructs encoding human LBD domains of human PPARα, PPARγ, of LXRα (pGAL4-PPARα, pGAL4-PPARγ, pGAL4-LXRα); expressed in transfected cells; host or cells: HepG2
T2 sequence (P37231 238-503 limits assumed): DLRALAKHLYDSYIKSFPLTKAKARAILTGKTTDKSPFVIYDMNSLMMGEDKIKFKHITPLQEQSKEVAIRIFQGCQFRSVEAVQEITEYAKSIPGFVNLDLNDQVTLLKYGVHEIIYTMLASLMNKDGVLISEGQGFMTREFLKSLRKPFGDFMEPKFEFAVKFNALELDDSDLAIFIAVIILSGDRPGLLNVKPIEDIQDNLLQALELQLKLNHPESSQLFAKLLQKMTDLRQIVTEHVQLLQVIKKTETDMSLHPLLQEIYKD
Briefly: PPARγ luciferase reporter gene assay (pGAL4-PPARγ / pGL5-UAS 9x) in HepG2 cells. Conditions: HepG2, 24 h. The assay is classed as cell-based.

Another assay deals with T3, TGR5 (Homo sapiens, UniProt Q8TDU6).
T3 sequence (Q8TDU6 1-330): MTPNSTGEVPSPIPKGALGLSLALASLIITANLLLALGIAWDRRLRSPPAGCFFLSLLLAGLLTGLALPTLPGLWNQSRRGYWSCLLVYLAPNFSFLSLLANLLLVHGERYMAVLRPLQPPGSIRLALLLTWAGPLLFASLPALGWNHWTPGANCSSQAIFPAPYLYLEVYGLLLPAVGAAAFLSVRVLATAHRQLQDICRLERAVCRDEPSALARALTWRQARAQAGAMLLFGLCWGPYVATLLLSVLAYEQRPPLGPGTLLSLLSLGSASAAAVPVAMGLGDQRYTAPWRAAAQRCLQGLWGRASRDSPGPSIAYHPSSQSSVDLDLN
Briefly: TGR5 luciferase reporter assay. The assay is classed as cell-based. Conditions: relative activation to LCA 10 µM (100%), negative value indicates inverse agonism.

In assay [1] the test system is C57BL/6J mice fed with high-fat diet. Kind of assay: Proof-of-concept study in mice fed with high-fat diet, liver mRNA expression by RT-qPCR. The assay is classed as in vivo. Conditions: 10 mg/kg p.o. daily for three weeks, HFD mice. As to the method:
The compound 37 has been applied daily (10 mg/kg) via p.o. gavage for three weeks to wild-type C57BL/6J mice fed with high-fat diet (HFD) for 24 weeks. After 24 h from the last application, mice were sacrificed, and live samples collected on dry ice for total RNA isolation. RT-qPCR experiments have been performed with TaqMan probes and expression has been quantified using a reference gene (Gapdh) and delta-delta method. Data represents fold up or downregulation in mRNA expression for tested genes related to the expression in vehicle-treated control animals. * - denotes statistically significant (p<0.05) up-regulation in animals treated with the compound of EXAMPLE 37 in comparison to animals fed with HFD only (n ≥ 10 in each groups). ^f - statistically significant effect of HFD diet on a gene expression. […]
Expressions of NR target genes mRNAs in livers of mice or in 3D cultured (spheroids) primary human hepatocytes have been performed using TaqMan probes-based RT-qPCR after isolation of total RNA by Trizol® (ThermoFischer Scientific) reagent and reverse transcription synthesis of cDNA in Quant Studio cycler. […] Delta-delta method and Gapdh or TATA-box binding protein (TBP) housekeeping genes were used for relative quantification. Data are expressed as fold up-/down-regulation compared to vehicle-treated samples/mice.

One may read the Emax as the greatest response seen or fitted, relative to the assay's reference.

Turning to `C[C@@H](Oc1ccc(Oc2ccc3c(Cl)cccc3n2)cc1)C(=O)O` [compound 37, (R)-2-(4-((5-Chloroquinolin-2-yl)oxy)phenoxy)propanoic acid], the figures for the Emax at 10 µM on human PPARα, on human PPARγ and on TGR5 were 8%, 1% and 10%, respectively. The “key genes of gluconeogenesis” value in assay [1] is given as “down-regulated”. In addition, the “key genes involved in fatty acid (beta) oxidation (Ucp2, Hadha and Hadha) in mouse livers” value in assay [1] (vs HFD only) was “up-regulates”.
